Data published in patent publication US20150266836A1, “AROMATIC SULFIDE COMPOUNDS AND METHODS AND USE THEREOF” (The Regents of the University of California, priority 2014, published 2015).

What was measured:
[1] = test system: MCF-7 breast cancer cell line; assay: Proliferation-based anti-breast-cancer assay (CyQUANT Cell Proliferation Assay) against MCF-7 cells; settings: for anticancer activity: inhibition of MCF-7 cell proliferation (result in words): compounds at 10 μM, compared to faslodex (ICI 182,780), FIG. 1; for EC50: Homo sapiens, MCF7, dose-response, 10 concentrations serially diluted from 120 μM, DMEM 2% FBS, normalized to DMSO vehicle, read-out: inhibition of MCF-7 cell proliferation, EC50
Experimental: Biological experiments were performed according to a modified procedure by Sigman et al.
MCF-7 cells were maintained in DMEM/high glucose supplemented with 10% FBS, L-glutamine, and penicillin/streptomycin. Experiments with MCF-7 cells were performed in DMEM/high glucose supplemented with 2% FBS, L-glutamine, and penicillin/streptomycin. MCF-10A cells were maintained in standard medium according to a modified recipe by Brugge et al. DMEM/F12 supplemented with 5% horse serum, 10 μg/mL of human insulin, 0.5 μg/mL of hydrocortisone, 10 ng/mL of EGF, 100 ng/mL of cholera toxin, and penicillin/streptomycin. Experiments with MCF-10A cells were performed in the same medium.
MCF-7 cells were centrifuged in 1×PBS for 20 min, and then the pellet was resuspended in DMEM supplemented with 10% FBS and filtered through a 40 μm nylon cell strainer (Fisher Scientific) to prevent clumping. The cells were seeded at 1500 cells per well in 96-well flat bottom plates suitable for fluorimetry, using 175 μL per well of DMEM supplemented with 10% FBS, and grown for 24 h in 5% CO2 at 37° C. The compounds (including the faslodex positive control) were dissolved in molecular biology grade DMSO to achieve a 3.5 mM stock solution and then sterile filtered through a 0.45 μm PVDF syringe filter unit (Fisher Scientific). The 3.5 mM stock solutions were subsequently diluted to a final concentration of 10 μM in DMEM supplemented with 2% FBS. Additionally, the corresponding DMSO vehicle control was diluted using the same medium.
After 24 h of growth, the cells were treated by replacing the normal media with fresh media containing the individual compounds or vehicle control (day 0). The outer rows of wells were not used to eliminate the possibility of effects due to evaporation of media. The cells were incubated with compound for 48 h and then treated again by aspirating the media and adding fresh media containing the compounds and controls (day 2). This procedure was repeated after an additional 48 h (day 4). After incubating a final 24 h, the 96-well plates were rinsed with 1×PBS, blotted dry, and then frozen at −78° C. overnight (day 5). On day 6, cell proliferation was measured using the fluorescence-based CyQUANT Cell Proliferation Assay Kit (Invitrogen).
Fluorimetry analysis was performed according to a modified procedure by McGowan et al. Cells were stained with 200 μL/well of 1× CyQUANT GR dye in cell lysis buffer for 10 min in the dark at room temperature and quantified by fluorimetry at 535 nm with 485 nm excitation. The fluorescence values were normalized to the DMSO vehicle control. The normalized values were plotted as an average±standard deviation of 6 wells per compound.
MCF-7 cells were centrifuged in 1×PBS for 20 min, and then the pellet was resuspended in DMEM supplemented with 10% FBS and filtered through a 40 μm nylon cell strainer (Fisher Scientific) to prevent clumping. The cells were seeded at 1500 cells per well in 96-well flat bottom plates suitable for fluorimetry, using 175 μL, per well of DMEM supplemented with 10% FBS, and grown for 24 h in 5% CO2 at 37° C. The compounds 19 and 25 were dissolved in molecular biology grade DMSO to achieve a 42 mM stock and then sterile filtered through a 0.45 μm PVDF syringe filter unit (Fisher Scientific). […]
Addition of compounds was performed as specified above for days 0-6. […] The fluorescence values were normalized to the DMSO vehicle controls corresponding to each concentration.

c1ccc(Sc2nc3ccccc3o2)cc1 [Compound 16, 2-Phenylthiobenzoxazole]
anticancer activity: inhibition of MCF-7 cell proliferation (result in words) [1]: inactive

c1ccc(Sc2nc3ccccc3s2)cc1 [Compound 15, 2-Phenylthiobenzothiazole]
anticancer activity: inhibition of MCF-7 cell proliferation (result in words) [1]: inactive

COc1cc(Sc2nnnn2-c2ccccc2)cc(OC)c1OC [Compound 26, 1-Phenyl-5-(3,4,5-trimethoxyphenylthio)-1H-tetrazole]
melting point: 110 to 111 °C

c1ccc(Sc2nnc(-c3ccccc3)o2)cc1 [Compound 19, 2-Phenyl-5-(phenylthio)-1,3,4-oxadiazole]
EC50 [1]: 7.9 µM

c1ccc(Sc2nnnn2-c2ccccc2)cc1 [Compound 18, 1-Phenyl-5-(phenylthio)-1H-tetrazole]
melting point: 129 to 133 °C

Fc1c(F)c(F)c(Sc2ccccc2)c(F)c1F [Compound 11, (Perfluorophenyl)(phenyl)sulfane]
melting point: 45 to 48 °C

COc1cc(Sc2nc3ccccc3o2)cc(OC)c1OC [Compound 25, 2-(3,4,5-Trimethoxyphenylthio)benzoxazole]
EC50 [1]: 4.5 µM | melting point: 129 to 130 °C

N#Cc1cccc(Sc2ncccn2)c1 [Compound 23, 3-(Pyrimidin-2-ylthio)benzonitrile]
melting point: 71 to 73 °C

COc1cc(Sc2ncccn2)cc(OC)c1OC [Compound 24, 2-(3,4,5-Trimethoxyphenylthio)pyrimidine]
melting point: 103 to 104 °C

COc1cc(Sc2nnc(-c3ccccc3)o2)cc(OC)c1OC [Compound 27, 2-Phenyl-5-(3,4,5-trimethoxyphenylthio)-1,3,4-oxadiazole]
anticancer activity: inhibition of MCF-7 cell proliferation (result in words) [1]: performed poorly | melting point: 142 °C
